Source: ChEMBL document CHEMBL1201862, “PubChem BioAssay data set” (2004)
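Five compound concentrations were applied to cells in 96-well plates for 48 hours; endpoints were derived by simple linear interpolation of the resulting dose-response curve. GI50: concentration for 50% inhibition of growth.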 Active and inactive are the calls of the source. No stated cut-off is given here; in the data, active = GI50 up to about 1.1 µM and inactive = higher.

Columns and labels:
Experiment in all cases: growth of human tumour cells (NCI), 48 h
OVCAR-5 = system: OVCAR-5
M14 = system: M14
HCT-116 = system: HCT-116
SNB-19 = system: SNB-19
SF-539 = system: SF-539
UO-31 = system: UO-31
SNB-75 = system: SNB-75
CAKI-1 = system: CAKI-1
BT-549 = system: BT-549

Measured: GI50

COc1cccc2c1[C@H](OC)[C@]13O[C@@]1(C2=O)[C@H](O)[C@H](C)[C@@](O)(C(=O)[C@@H]1O[C@H]1C)[C@@H]3O
active: OVCAR-5 297 nM | M14 221 nM | HCT-116 318 nM | SNB-19 286 nM | SF-539 271 nM | UO-31 249 nM | SNB-75 233 nM | CAKI-1 273 nM | BT-549 289 nM
